Test results taken from patent US12599136B2, “Substituted isophthalic acid diamides and their use as herbicides” (Bayer Aktiengesellschaft, priority 2020, dated 2026).

Columns and labels:
Format in all cases: in vivo
Abutilon theophrasti [1] = assay: Pre-emergence herbicidal action against ABUTH; conditions: visual score after 3 weeks vs untreated controls
Method in brief: (§1)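 Sandy loam pots, seeds covered with soil, then surface-treated with WP or EC formulations at 600–800 l/ha water plus 0.2% wetting agent. Greenhouse, 3 weeks. Percent damage vs untreated controls.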

Alopecurus myosuroides [2] = assay: Pre-emergence herbicidal action against ALOMY; conditions: visual score after 3 weeks vs untreated controls
Method in brief: as §1

Amaranthus retroflexus [3] = assay: Pre-emergence herbicidal action against AMARE; conditions: visual score after 3 weeks vs untreated controls
Method in brief: as §1

Avena fatua [4] = assay: Pre-emergence herbicidal action against AVEFA; conditions: visual score after 3 weeks vs untreated controls
Method in brief: as §1

Cyperus esculentus [5] = assay: Pre-emergence herbicidal action against CYPES; conditions: 320 g/ha; visual score after 3 weeks vs untreated controls
Method in brief: as §1

Echinochloa crus-galli [6] = assay: Pre-emergence herbicidal action against ECHCG; conditions: visual score after 3 weeks vs untreated controls
Method in brief: as §1

Matricaria inodora [7] = assay: Pre-emergence herbicidal action against MATIN; conditions: visual score after 3 weeks vs untreated controls
Method in brief: as §1

Pharbitis purpurea [8] = assay: Pre-emergence herbicidal action against PHBPU; conditions: 320 g/ha; visual score after 3 weeks vs untreated controls
Method in brief: as §1

Hordeum murinum [9] = assay: Pre-emergence herbicidal action against HORMU; conditions: visual score after 3 weeks vs untreated controls
Method in brief: as §1

Lolium rigidum [10] = assay: Pre-emergence herbicidal action against LOLRI; conditions: 320 g/ha
Method in brief: as §1

Setaria viridis [11] = assay: Pre-emergence herbicidal action against SETVI
Method in brief: as §1

Stellaria media [12] = assay: Pre-emergence herbicidal action against STEME
Method in brief: as §1

Veronica persica [13] = assay: Pre-emergence herbicidal action against VERPE; conditions: 320 g/ha
Method in brief: as §1

Viola tricolor [14] = assay: Pre-emergence herbicidal action against VIOTR
Method in brief: as §1

Abutilon theophrasti [15] = assay: Post-emergence herbicidal action against ABUTH
Method in brief: (§2)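 Herbicidal action is a visual percentage rating (0% = as untreated control, 100% = plants dead) made roughly 3 weeks after treatment. Plants were grown in sandy loam in the greenhouse and treated at the one-leaf stage, 2 to 3 weeks post-sowing. Treatment was a foliar spray of wettable-powder or emulsion-concentrate formulations at 600 to 800 l/ha water plus 0.2% wetting agent.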

Alopecurus myosuroides [16] = assay: Post-emergence herbicidal action against ALOMY
Method in brief: as §2

Amaranthus retroflexus [17] = assay: Post-emergence herbicidal action against AMARE; conditions: visual assessment about 3 weeks after treatment
Method in brief: as §2

Avena fatua [18] = assay: Post-emergence herbicidal action against AVEFA; conditions: visual assessment about 3 weeks after treatment
Method in brief: as §2

Cyperus esculentus [19] = assay: Post-emergence herbicidal action against CYPES; conditions: 80 g/ha, visual assessment about 3 weeks after treatment
Method in brief: as §2

Echinochloa crus-galli [20] = assay: Post-emergence herbicidal action against ECHCG; conditions: visual assessment about 3 weeks after treatment
Method in brief: as §2

Matricaria inodora [21] = assay: Post-emergence herbicidal action against MATIN; conditions: visual assessment about 3 weeks after treatment
Method in brief: as §2

Pharbitis purpurea [22] = assay: Post-emergence herbicidal action against PHBPU; conditions: visual assessment about 3 weeks after treatment
Method in brief: as §2

Hordeum murinum [23] = assay: Post-emergence herbicidal action against HORMU
Method in brief: as §2

Lolium rigidum [24] = assay: Post-emergence herbicidal action against LOLRI; conditions: 80 g/ha
Procedure: Seeds of monocotyledonous and dicotyledonous weed and crop plants are laid out in sandy loam soil in wood-fiber pots, covered with soil and cultivated in a greenhouse under good growth conditions. 2 to 3 weeks after sowing, the test plants are treated at the one-leaf stage. The compounds of the invention, formulated in the form of wettable powders (WP) or as emulsion concentrates (EC), are then sprayed onto the green parts of the plants in the form of an aqueous suspension or emulsion at a water application rate equivalent to 600 to 800 l/ha, with addition of 0.2% wetting agent. After the test plants have been left to stand in the greenhouse under optimal growth conditions for about 3 weeks, the action of the preparations is assessed visually in comparison to untreated controls (herbicidal action in percent (%): 100% activity=the plants have died, 0% activity=like control plants). […] The tables below illustrate, in an illustrative manner, the post-emergence herbicidal action of the compounds of the invention, the herbicidal activity being stated in percent.

Polygonum convolvulus = assay: Post-emergence herbicidal action against POLCO; conditions: 80 g/ha, visual assessment about 3 weeks after treatment
Method in brief: as §2

Setaria viridis [25] = assay: Post-emergence herbicidal action against SETVI; conditions: visual assessment about 3 weeks after treatment
Method in brief: as §2

Stellaria media [26] = assay: Post-emergence herbicidal action against STEME; conditions: visual assessment about 3 weeks after treatment
Method in brief: as §2

Veronica persica [27] = assay: Post-emergence herbicidal action against VERPE; conditions: visual assessment about 3 weeks after treatment
Method in brief: as §2

Viola tricolor [28] = assay: Post-emergence herbicidal action against VIOTR
Method in brief: as §2

## CN(CC1CC1)C(=O)c1c(C(F)(F)F)ccc(C(=O)Nc2nnnn2C)c1Cl [Example 1-126]
Abutilon theophrasti [1]; 20 g/ha
  Pre-emergence action against ABUTH: 100%
Abutilon theophrasti [1]; 80 g/ha
  Pre-emergence action against ABUTH: 100%
Abutilon theophrasti [1]; Dosage column 320 g/ha (heading prints 3200 g/ha)
  Pre-emergence action against ABUTH: 100%
Alopecurus myosuroides [2]; 80 g/ha
  Pre-emergence action against ALOMY: 80%
Alopecurus myosuroides [2]; 320 g/ha
  Pre-emergence action against ALOMY: 90%
Amaranthus retroflexus [3]; 20 g/ha
  Pre-emergence action against AMARE: 80%
Amaranthus retroflexus [3]; 80 g/ha
  Pre-emergence action against AMARE: 90%
Amaranthus retroflexus [3]; 320 g/ha
  Pre-emergence action against AMARE: 100%
Avena fatua [4]; 80 g/ha
  Pre-emergence action against AVEFA: 80%
Avena fatua [4]; 320 g/ha
  Pre-emergence action against AVEFA: 100%
Cyperus esculentus [5]
  Pre-emergence action against CYPES: 90%
Echinochloa crus-galli [6]; 80 g/ha
  Pre-emergence action against ECHCG: 90%
Echinochloa crus-galli [6]; 320 g/ha
  Pre-emergence action against ECHCG: 100%
Matricaria inodora [7]; 20 g/ha
  Pre-emergence action against MATIN: 80%
Matricaria inodora [7]; 80 g/ha
  Pre-emergence action against MATIN: 100%
Matricaria inodora [7]; 320 g/ha
  Pre-emergence action against MATIN: 100%
Pharbitis purpurea [8]
  Pre-emergence action against PHBPU: 80%
Hordeum murinum [9]; 80 g/ha
  Pre-emergence action against HORMU: 80%
Hordeum murinum [9]; 320 g/ha
  Pre-emergence action against HORMU: 100%
Lolium rigidum [10]
  Pre-emergence action against LOLRI: 90%
Setaria viridis [11]; 80 g/ha
  Pre-emergence action against SETVI: 90%
Setaria viridis [11]; 320 g/ha
  Pre-emergence action against SETVI: 100%
Stellaria media [12]; 20 g/ha
  Pre-emergence action against STEME: 80%
Stellaria media [12]; 320 g/ha
  Pre-emergence action against STEME: 90%
Veronica persica [13]
  Pre-emergence action against VERPE: 90%
Viola tricolor [14]; 80 g/ha
  Pre-emergence action against VIOTR: 100%
Viola tricolor [14]; 320 g/ha
  Pre-emergence action against VIOTR: 100%
Abutilon theophrasti [15]; 5 g/ha
  Post-emergence action against ABUTH: 100%
Abutilon theophrasti [15]; 20 g/ha
  Post-emergence action against ABUTH: 100%
Abutilon theophrasti [15]; 80 g/ha
  Post-emergence action against ABUTH: 100%
Alopecurus myosuroides [16]; 5 g/ha
  Post-emergence action against ALOMY: 90%
Alopecurus myosuroides [16]; 20 g/ha
  Post-emergence action against ALOMY: 100%
Alopecurus myosuroides [16]; 80 g/ha
  Post-emergence action against ALOMY: 100%
Amaranthus retroflexus [17]; 5 g/ha
  Post-emergence action against AMARE in %: 100%
Amaranthus retroflexus [17]; 20 g/ha
  Post-emergence action against AMARE in %: 100%
Amaranthus retroflexus [17]; 80 g/ha
  Post-emergence action against AMARE in %: 100%
Avena fatua [18]; 20 g/ha
  Post-emergence action against AVEFA in %: 100%
Avena fatua [18]; 80 g/ha
  Post-emergence action against AVEFA in %: 100%
Cyperus esculentus [19]
  Post-emergence action against CYPES in %: 80%
Echinochloa crus-galli [20]; 5 g/ha
  Post-emergence action against ECHCG in %: 80%
Echinochloa crus-galli [20]; 20 g/ha
  Post-emergence action against ECHCG in %: 100%
Echinochloa crus-galli [20]; 80 g/ha
  Post-emergence action against ECHCG in %: 100%
Matricaria inodora [21]; 5 g/ha
  Post-emergence action against MATIN in %: 80%
Matricaria inodora [21]; 20 g/ha
  Post-emergence action against MATIN in %: 90%
Matricaria inodora [21]; 80 g/ha
  Post-emergence action against MATIN in %: 100%
Pharbitis purpurea [22]; 5 g/ha
  Post-emergence action against PHBPU in %: 90%
Pharbitis purpurea [22]; 20 g/ha
  Post-emergence action against PHBPU in %: 90%
Pharbitis purpurea [22]; 80 g/ha
  Post-emergence action against PHBPU in %: 100%
Hordeum murinum [23]; 20 g/ha
  Post-emergence action against HORMU in %: 100%
Hordeum murinum [23]; 80 g/ha
  Post-emergence action against HORMU in %: 100%
Lolium rigidum [24]
  Post-emergence action against LOLRI in %: 90%
Polygonum convolvulus
  Post-emergence action against POLCO in %: 80%
Setaria viridis [25]; 5 g/ha
  Post-emergence action against SETVI in %: 100%
Setaria viridis [25]; 20 g/ha
  Post-emergence action against SETVI in %: 100%
Setaria viridis [25]; 80 g/ha
  Post-emergence action against SETVI in %: 100%
Stellaria media [26]; 5 g/ha
  Post-emergence action against STEME in %: 100%
Stellaria media [26]; 20 g/ha
  Post-emergence action against STEME in %: 100%
Stellaria media [26]; 80 g/ha
  Post-emergence action against STEME in %: 100%
Veronica persica [27]; 20 g/ha
  Post-emergence action against VERPE in %: 80%
Veronica persica [27]; 80 g/ha
  Post-emergence action against VERPE in %: 80%
Viola tricolor [28]; 5 g/ha
  Post-emergence action against VIOTR in %: 90%
Viola tricolor [28]; 20 g/ha
  Post-emergence action against VIOTR in %: 100%
Viola tricolor [28]; 80 g/ha
  Post-emergence action against VIOTR in %: 100%
